Test [1] deals with FAK, p-FAK, p44/42erk-1/2, p-p44/42erk-1/2 in α5β1+ OV-MZ-6 cells. The test is described as follows: Western blot of FAK and p44/42erk-1/2 expression and activation, OV-MZ-6 cells. Format: cell-based. Conditions: for p-FAK, transient elevation, n-fold of untreated cells: concentration not specified. How it is done: Since agonistic ligand performance requires integrin activation and signaling, by Western blot analysis, we studied whether the different ligands alter the expression levels and activation states of FAK and p44/42^(erk-1/2). For this, the respective target integrin-expressing tumor cell types were incubated with the corresponding subtype-selective ligand at a concentration of 1 μM for 24 h (Figure 8). […] Signal intensities of FAK and p44/42^(erk-1/2) expression and activation (p-FAK and p-p44/42^(erk-1/2)) on Western blots were evaluated by densitometry. Data are depicted as GAPDH-normalized fluorescence signal intensities as n-fold, by setting values obtained for the respective untreated cells to “1”. […] MAPK p44/42^(erk-1/2) expression was approximately 2.2-fold augmented, p44/42^(erk-1/2) by approximately 2.5-fold. It also raised activation of p-FAK and p-p44/42^(erk-1/2) by approximately 2.2-fold and 3.1-fold, respectively, in α5β1+ OV-MZ-6 cells. […] Additionally, it raised FAK (approximately 1.7-fold) and p-p44/42^(erk-1/2) (approximately 2.4-fold) in α5β1+ OV-MZ-6 cells.
Figure 8 Effects of ligands on cellular expression and activation of integrin-related signaling molecules FAK and p44/42^(erk-1/2). […] Signal intensities for FAK and p-FAK, respectively, were evaluated by use of the Bio-Rad Imager Gel Doc XR+ and a ChemiDoc XRS+ Systems and the software Image Lab. Shown are typical representative Western blot images and the corresponding histograms depicting GAPDH-normalized signal intensities as n-fold by setting the values obtained for untreated cells to “1” (drawn as black line). For each cell line, cutouts of identical gels are depicted.
In order to capture early and transient changes in signaling activation following ligand treatment, we next reduced the observation periods to 5, 30, or 60 min and assessed FAK expression and activation. […] Depicted are typical Western blot images and the corresponding densitometrical evaluations of GAPDH-normalized signal intensities as n-fold, by setting that of the respective untreated cell type to “1” (Figure 9). […]
The kinases (p-)p44/42^(erk-1/2) and (p-)FAK were detected as previously published.[15],[8] Briefly, cells were grown for 18 h on six-well plates in DMEM (0.45 Mio cells/well). After medium exchange, fresh medium with L1–L5 (concentration: 1.0 μM, 2 mL/well) was added, and cells were incubated for another 24 h at 37 °C. In a second series, cells were incubated with L1–L5 (1 μM or 1 nM) for 5, 30, or 60 min. Thereafter, the cellular proteins were extracted and processed by Western blotting. Proteins were visualized using the Pierce ECL chemiluminescent substrate (Thermo Fisher Scientific). Band signal intensities for (p-)p44/42^(erk-1/2) and (p-)FAK were evaluated using the Bio-Rad Imager Gel Doc XR + and ChemiDoc XRS + Systems and the software Image Lab. Differences in protein loading and blotting efficiency were normalized by reprobing the membranes with a monoclonal antibody directed to GAPDH. Signal intensities for protein bands of interest were normalized to those recorded for GAPDH. Typical Western blot images are depicted together with histograms summarizing the mean values of normalized fluorescence signal intensities as n-fold, by setting those obtained for untreated cells to “1”.
(In general: A western blot detects proteins with antibodies after separation by electrophoresis.)

Another test concerns α5β1+ OV-MZ-6 cells. The test is described as follows: Wound scratch cell migration assay, OV-MZ-6 cells. Format: cell-based. The following applies: for Effect on wound gap closure / cell migration: OV-MZ-6 cells. How it is done: As a biological readout for integrin signaling, we analyzed ligand effects on cell adhesion and migration by wound scratch assays (Figure 10A,B). […] Microscopical images were taken directly after wounding the cell monolayers and then after 9, 24, 48, and 72 h, respectively.
Figure 10 (A) Effect of integrin ligands on cancer cell migration. […] Microscopical measurements of wound gaps were taken directly after setting the wound scratch and then after 9, 24, 48, and 72 h, respectively. Wound scratch assays were repeated at least three times. The extent of wound gap closure [%]/cell coverage was calculated by a python script utilizing Canny’s Edge Detection algorithm as described under Materials and summarized in the corresponding histograms (see also Scheme S5 in the Supporting Information). (B) Adhesion of M21, OV-MZ-6, and HN cells in the presence of the respective integrin targeting ligand at low (1 nM) and high (1 μM) concentrations. […] Depicted are typical microscopical images of the respective cell monolayers.
The assays were performed according to a modified protocol as previously published.[94] Cells were cultivated on fibronectin-coated 12-well cell culture plates until cell monolayers reached an approximately 80% confluency. Then, the wound scratch was set utilizing a 200 μL pipet tip. Subsequently, fresh culture medium was added in the absence or presence of L1–L5 (concentration: 1 μM or 1 nM), and microscopical images (Zeiss, Oberkochen, Germany) were taken at two identical positions of the wound gap directly after wounding and then at 9, 24, 48, or 72 h of further cell cultivation. Each wound scratch assay was repeated three times. A custom python script was implemented to analyze wound gap closure over time: after cropping the images, we used the OpenCV[95] implementation of Canny’s Edge Detection Algorithm[96] to ensure reliable measurements even with variable lighting conditions.[97] As a first step, a 5 × 5 Gaussian filter was applied to remove background noise. The smoothened images were then filtered by a Sobel kernel[98] and the magnitude and direction of the intensity gradient of the images calculated. Then, a non-maximum suppression algorithm was applied to identify relevant pixels that presumably contribute to edges. In a final step, threshold hysteresis was utilized to distinguish true edges from variations in intensity or the remaining background noise. The resulting images were then segmented and binarized by use of a grid filter and analyzed with respect to cell-covered area relative to the start image of each series.
Scheme S5. Effect of integrin ligands on cancer cell migration (control cells to Fig. 10A in the main manuscript). a) Integrin αvβ3- OV-MZ-6 cells, α5β1- M21 cells, α5β1+ and αvβ3- and […]
mages of wound gaps were taken directly after setting the wound scratch and then after […], respectively. Wound scratch assays were repeated at least 3 times. The extent of wound gap closure [%]/cell coverage was calculated by a python script utilizing Canny’s Edge Detection algorithm11 as described in the Experimental Section and summarized in the corresponding histograms.
(1 picture or pasted object on this page, not shown here)

[2] abbreviates: concentration not specified or both, within 60 min.

Take c(FRGDLAFp(NMe)K) [L3]: the “FAK expression versus untreated cells” value in test [1] (setting [2]) is “no effect”. Further, the “p-FAK, transient elevation, n-fold of untreated cells” value in test [1] (within 60 min) is “approximately 2.9 fold”. For the same compound, the “Effect on wound gap closure” value in the test on α5β1+ OV-MZ-6 cells (αvβ6- OV-MZ-6 cells, concentration not specified) is on record as “delayed wound gap closure”.
As to `C#CCCC(=O)NCCCOc1cc(C)c(C(=O)N[C@@H](CNC(=O)CNC(=O)c2cccc(NC(=N)N)c2)C(=O)O)c(C)c1` [L5, (S)-2-(2,6-Dimethyl-4-(3-(pent-4-ynamido)propoxy)benzamido)-3-(2-(3-guanidinobenzamido)acetamido)propanoic Acid], in test [1] (1 nM, 5, 30 or 60 min), the “FAK levels, n-fold of untreated cells” value was “approximately 1.6 fold” and the “p-FAK, highest or initial elevation, n-fold of untreated cells” value is “approximately threefold”. In addition, in test [1] (1 μM), the “p-FAK, highest induction at 30 min, n-fold of untreated cells” value was “approximately fourfold”. In addition, the “FAK expression versus untreated cells” value in test [1] (1 μM, 5, 30 or 60 min) is reported as “equal to or only slightly higher than that in untreated cells”. In test [1] (1 μM, 24 h), the “(p-)FAK and (p-)p-44/42erk-1/2” value is reported as “did not modulate”. In addition, the “Effect on wound gap closure / cell migration” value in the test on α5β1+ OV-MZ-6 cells (1 nM) is given as “did not alter their migratory capacity”. In the test with α5β1+ OV-MZ-6 cells (1 μM), the “Effect on wound gap closure / cell migration” value is listed as “blocked migration”.
On to `C#CCCC(=O)NCCCOc1ccc(C(=O)N[C@H](CC(=O)O)Cc2ccc(OCCCNc3cc(OC)ccn3)cc2)cc1` [L1, (S)-4-(4-(3-((4-Methoxypyridin-2-yl)amino)propoxy)phenyl)-3-(4-(3-(pent-4-ynamido)propoxy)benzamido)butanoic Acid], for which, in test [1] (1 μM, 24 h, GAPDH-normalized), the “FAK, n-fold of untreated cells” value is listed as “approximately 1.7 fold” and the “p-p44/42erk-1/2, n-fold of untreated cells” value was “approximately 2.4 fold”. In addition, the “FAK expression versus untreated cells” value in test [1] (setting [2]) was “transient slight increase”. Besides, the “p-FAK, transient elevation, n-fold of untreated cells” value in test [1] (within 60 min) was “approximately twofold”. The “Effect on wound gap closure / cell migration” value in the test on α5β1+ OV-MZ-6 cells (1 nM) is “not observed”. The “Effect on wound gap closure / cell migration” value with α5β1+ OV-MZ-6 cells (1 μM) is “more efficient blockade of cell migration than in M21 cells”.

For the origin of these results see PMC11874007, “Switching Roles—Exploring Concentration-Dependent Agonistic versus Antagonistic Behavior of Integrin Ligands” (Journal of Medicinal Chemistry, 2025).
